Laboratory results taken from patent US20260015409A1, “RECEPTOR-MEDIATED ENDOCYTOSIS FOR TARGETED INTERNALIZATION AND DEGRADATION OF MEMBRANE PROTEINS AND CARGOS” (Dana-Farber Cancer Institute, Inc., priority 2022, published 2026).
Entries after “also recorded” stand apart in the source; their conditions may differ. Where a SMILES comes first, the peptide text is derived from it. The star is where a group is joined. Cbz = O=C(OCc1ccccc1)*

How the values were obtained:
PC9 GR4 C797S cells = assay: MTT cell viability assay, PC9 GR4 C797S cells
PC9-GR4 cells = assay: MTT cell viability assay, PC9-GR4 cells; assay type: cell-based
EGFR = molecular target: T1, EGFR (Homo sapiens, UniProt P00533); assay: EGFR degradation by Western blot in A549 lung carcinoma cells; assay type: cell-based; conditions: A549 cells treated with EGFR-TransTACs; 1 μM inhibitor
T1 construct: endogenous in cells; host or cells: A549
T1 sequence (P00533 25-1210): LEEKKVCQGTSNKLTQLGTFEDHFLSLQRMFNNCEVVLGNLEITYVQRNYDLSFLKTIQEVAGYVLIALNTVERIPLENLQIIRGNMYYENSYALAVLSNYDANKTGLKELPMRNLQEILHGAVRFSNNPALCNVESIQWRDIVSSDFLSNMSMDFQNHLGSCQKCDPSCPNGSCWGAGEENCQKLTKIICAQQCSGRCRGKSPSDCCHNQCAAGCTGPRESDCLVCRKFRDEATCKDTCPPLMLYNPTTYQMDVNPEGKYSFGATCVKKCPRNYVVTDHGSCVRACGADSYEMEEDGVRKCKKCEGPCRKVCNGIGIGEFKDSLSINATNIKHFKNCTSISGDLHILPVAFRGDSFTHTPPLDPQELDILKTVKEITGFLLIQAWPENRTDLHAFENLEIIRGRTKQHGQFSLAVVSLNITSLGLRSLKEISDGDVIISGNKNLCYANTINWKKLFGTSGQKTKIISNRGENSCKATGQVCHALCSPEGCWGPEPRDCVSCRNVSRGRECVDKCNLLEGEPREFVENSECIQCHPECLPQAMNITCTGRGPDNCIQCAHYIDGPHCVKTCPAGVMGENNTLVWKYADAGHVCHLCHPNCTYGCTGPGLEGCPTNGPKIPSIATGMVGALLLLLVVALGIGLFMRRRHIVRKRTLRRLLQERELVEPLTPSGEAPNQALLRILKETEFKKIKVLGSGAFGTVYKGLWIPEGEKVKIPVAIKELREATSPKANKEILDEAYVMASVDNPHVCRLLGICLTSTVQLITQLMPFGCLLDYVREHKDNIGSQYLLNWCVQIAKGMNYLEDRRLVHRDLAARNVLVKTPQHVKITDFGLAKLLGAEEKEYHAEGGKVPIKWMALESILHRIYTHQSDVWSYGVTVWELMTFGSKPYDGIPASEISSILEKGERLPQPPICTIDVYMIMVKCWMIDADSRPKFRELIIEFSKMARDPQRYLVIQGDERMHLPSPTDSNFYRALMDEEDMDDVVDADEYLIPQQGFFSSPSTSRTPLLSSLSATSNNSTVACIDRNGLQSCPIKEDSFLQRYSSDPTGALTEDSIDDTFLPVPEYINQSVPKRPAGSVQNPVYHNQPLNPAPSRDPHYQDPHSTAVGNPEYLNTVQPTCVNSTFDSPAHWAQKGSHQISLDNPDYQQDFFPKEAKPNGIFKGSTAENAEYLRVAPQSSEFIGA
Experimental: Targeted therapy with tyrosine kinase inhibitors is a standard treatment for lung cancer with EGFR mutations. We reasoned that co-targeting an EGFR and a TfR receptor on lung cancer cells could lead to EGFR inhibition while maintaining high tumor specificity (FIG. 30A). We generated an anti-EGFR affibody*H7*GFLG-VR TransTAC. Incubation of the molecule with a human lung adenocarcinoma A549 cell line led to >90% EGFR degradation (FIG. 30B). […] This specificity results from higher TfR expression in tumor cells (FIG. 27A-C).
Next, we aimed to target epidermal growth factor receptor (EGFR), a receptor tyrosine kinase that plays an important role in the development and progression of various types of cancers such as lung and brain. An affibody (Friedman, Mikaela, et al. “Directed evolution to low nanomolar affinity of a tumor-targeting epidermal growth factor receptor-binding affibody molecule.” Journal of molecular biology 376.5, 2008: 1388-1402) was used to bind EGFR and create an EGFR-TransTAC.
We next investigated the cellular mechanism underlying TransTAC-mediated protein degradation. Two primary pathways involved in the degradation of cellular proteins were tested: the lysosomal pathway and the proteosome pathway. A549 cells were treated either with bafilomycin, a vacuolar proton pump inhibitor that inhibits lysosomal acidification, or MG132, a proteasomal inhibitor.

CD20 = molecular target: T2, CD20 (Homo sapiens, UniProt P11836); assay: CD20 degradation in Raji cells; assay type: cell-based; conditions: Western blot
T2 construct: endogenous in cells; host or cells: Raji
T2 sequence (P11836 1-297): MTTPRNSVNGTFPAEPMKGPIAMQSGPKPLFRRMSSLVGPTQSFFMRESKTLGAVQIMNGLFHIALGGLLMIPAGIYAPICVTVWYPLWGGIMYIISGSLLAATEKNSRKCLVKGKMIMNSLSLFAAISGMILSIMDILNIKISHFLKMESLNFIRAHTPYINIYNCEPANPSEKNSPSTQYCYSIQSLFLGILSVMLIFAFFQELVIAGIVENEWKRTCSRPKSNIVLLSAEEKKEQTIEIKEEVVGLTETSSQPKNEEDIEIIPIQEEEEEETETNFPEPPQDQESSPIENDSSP
Excerpt: Cluster of differentiate 20 (CD20) is a B cell-specific surface marker with four transmembrane domains and an unknown function. Knocking down cell surface CD20s with a degrader can be valuable. A CD20-TransTAC was created using a Fab format of Rituximab, the first clinically approved CD20 antibody, to bind CD20.

## C=CC(=O)Nc1cc(Nc2nccc(-c3cn(C)c4ccccc34)n2)c(OC)cc1N(C)CCN(C)C [osimertinib]
PC9 GR4 C797S cells
  inhibition of cell viability: did not respond
PC9-GR4 cells
  IC50: 0.207 µM

## CC(C)C[C@@H](C=O)NC(=O)[C@H](CC(C)C)NC(=O)[C@H](CC(C)C)NC(=O)OCc1ccccc1 [MG132] (Cbz-Leu-Leu-Leu-aldehyde)
EGFR
  effect of inhibitor on TransTAC-mediated EGFR degradation: sensitive; also recorded: much less significant effect

## CO/C1=C\C(C)=C\[C@@H](C)[C@@H](O)[C@@H](C)C/C(C)=C/C=C/[C@H](OC)[C@@H]([C@@H](C)[C@@H](O)[C@H](C)[C@@]2(O)C[C@@H](O)[C@H](C)[C@@H](C(C)C)O2)OC1=O [bafilomycin]
EGFR
  effect of inhibitor on TransTAC-mediated EGFR degradation: sensitive; also recorded: prevented TransTAC-mediated EGFR degradation; also recorded: fully inhibited

## CN(C)C/C=C/C(=O)Nc1cc2c(Nc3ccc(F)c(Cl)c3)ncnc2cc1O[C@H]1CCOC1 [afatinib]
PC9-GR4 cells
  IC50: 0.168 µM

## rituximab-scFv-Fc control: rituximab scFv-Fc control without TfR binder
CD20
  CD20 degradation: does not lead to significant CD20 degradation
